Legend:
Test in all cases: relative viability (nuclei count vs DMSO), 5 days (fraction); higher = more cells survive
BAY61-3606 + Phenformin = compound: COC1=C(C=C(C=C1)C2=CC3=NC=CN3C(=N2)NC4=C(C=CC=N4)C(=O)N)OC [BAY61-3606] + N=C(N)NC(=N)NCCc1ccccc1 [Phenformin] (partner 250 µM)
Method in brief: (§1)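 For relative viability, nuclei counts in treated wells were divided by those in vehicle wells. Lung cancer cell lines had been pin-tool dosed in 1536-well plates the day after seeding and cultured for 5 days, then fixed and stained in one step (final 0.05% Triton X-100, 1% formaldehyde, 1 ug/ml Hoechst) and imaged at 4×. Doses were one drug alone or a fixed anchor-drug dose plus five library-drug doses (not always all listed) in √10 steps, and values are duplicate-plate medians.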

Doxorubicin + Pictilisib = compound: COc1cccc2c1C(=O)c1c(O)c3c(c(O)c1C2=O)C[C@@](O)(C(=O)CO)C[C@@H]3O[C@H]1C[C@H](N)[C@H](O)[C@H](C)O1 [Doxorubicin] + CS(=O)(=O)N1CCN(Cc2cc3nc(-c4cccc5[nH]ncc45)nc(N4CCOCC4)c3s2)CC1 [Pictilisib] (partner 1 µM)
Method in brief: as §1

Doxorubicin + Vorinostat = compound: COc1cccc2c1C(=O)c1c(O)c3c(c(O)c1C2=O)C[C@@](O)(C(=O)CO)C[C@@H]3O[C@H]1C[C@H](N)[C@H](O)[C@H](C)O1 [Doxorubicin] + O=C(CCCCCCC(=O)Nc1ccccc1)NO [Vorinostat] (partner 1 µM)
Method in brief: as §1

Doxorubicin + Trametinib = compound: COc1cccc2c1C(=O)c1c(O)c3c(c(O)c1C2=O)C[C@@](O)(C(=O)CO)C[C@@H]3O[C@H]1C[C@H](N)[C@H](O)[C@H](C)O1 [Doxorubicin] + CC(=O)Nc1cccc(-n2c(=O)n(C3CC3)c(=O)c3c(Nc4ccc(I)cc4F)n(C)c(=O)c(C)c32)c1 [Trametinib] (partner 0.02 µM)
Method in brief: as §1

Row | Cell Line | relative viability (BAY61-3606 + Phenformin; first compound 0.02 µM) | relative viability (BAY61-3606 + Phenformin; first compound 0.06325 µM) | relative viability (BAY61-3606 + Phenformin; first compound 0.2 µM) | relative viability (BAY61-3606 + Phenformin; first compound 0.6325 µM) | relative viability (BAY61-3606 + Phenformin; first compound 2 µM) | relative viability (Doxorubicin + Pictilisib; first compound 0.001 µM) | relative viability (Doxorubicin + Pictilisib; first compound 0.003162 µM) | relative viability (Doxorubicin + Pictilisib; first compound 0.01 µM) | relative viability (Doxorubicin + Pictilisib; first compound 0.03162 µM) | relative viability (Doxorubicin + Pictilisib; first compound 0.1 µM) | relative viability (Doxorubicin + Vorinostat; first compound 0.001 µM) | relative viability (Doxorubicin + Vorinostat; first compound 0.003162 µM) | relative viability (Doxorubicin + Vorinostat; first compound 0.01 µM) | relative viability (Doxorubicin + Vorinostat; first compound 0.03162 µM) | relative viability (Doxorubicin + Vorinostat; first compound 0.1 µM) | relative viability (Doxorubicin + Trametinib; first compound 0.001 µM) | relative viability (Doxorubicin + Trametinib; first compound 0.003162 µM) | relative viability (Doxorubicin + Trametinib; first compound 0.01 µM) | relative viability (Doxorubicin + Trametinib; first compound 0.03162 µM) | relative viability (Doxorubicin + Trametinib; first compound 0.1 µM)
1 | PC-14 | 0.752 | 0.357 | 0.579 | 0.532 | 0.536 | 0.619 | 0.926 | 0.809 | 0.568 | 0.663 | 0.655 | 0.781 | 0.709 | 0.182 | 0.0946 | 0.751 | 0.74 | 0.536 | 0.162 | 0.0928
2 | SW 1573 | 0.288 | 0.336 | 0.342 | 0.328 | 0.166 | 0.512 | 0.46 | 0.424 | 0.332 | 0.258 | 0.725 | 0.481 | 0.233 | 0.109 | 0.104 | 0.463 | 0.589 | 0.187 | 0.102 | 0.067
3 | COR-L 105 | 0.494 | 0.506 | 0.435 | 0.413 | 0.323 | 0.463 | 0.444 | 0.355 | 0.283 | 0.277 | 0.707 | 0.788 | 0.773 | 0.559 | 0.434 | 0.452 | 0.483 | 0.423 | 0.423 | 0.377
4 | NCI-H322M | 0.824 | 0.71 | 0.812 | 0.773 | 0.626 | 0.589 | 0.448 | 0.546 | 0.561 | 0.564 | 1.01 | 0.836 | 0.85 | 0.769 | 0.57 | 0.478 | 0.565 | 0.52 | 0.542 | 0.498
5 | NCI-H1395 | 0.459 | 0.371 | 0.444 | 0.469 | 0.414 | 0.682 | 0.623 | 0.648 | 0.628 | 0.421 | 0.551 | 0.688 | 0.825 | 0.572 | 0.493 | 0.929 | 0.948 | 0.964 | 0.971 | 0.867
6 | PC-3 [JPC-3] | – | 0.491 | 0.476 | 0.454 | 0.463 | 0.774 | 0.842 | 0.758 | 0.713 | 0.702 | 1.02 | 0.946 | 0.824 | 0.747 | 0.416 | 0.614 | 0.628 | 0.687 | 0.632 | 0.741
7 | NCI-H1975 | 0.41 | 0.413 | 0.412 | 0.394 | 0.301 | 0.292 | 0.3 | 0.237 | 0.177 | 0.198 | 0.731 | 0.735 | 0.678 | 0.679 | 0.531 | 0.256 | 0.332 | 0.376 | 0.234 | 0.248
8 | CAL-12T | 0.559 | 0.592 | 0.502 | 0.557 | 0.266 | 0.508 | 0.559 | 0.402 | 0.343 | 0.25 | 0.928 | 0.808 | 0.488 | 0.228 | 0.153 | 0.381 | 0.352 | 0.33 | 0.225 | 0.125
9 | SK-LU-1 | 0.563 | 0.451 | 0.569 | 0.506 | 0.284 | 0.571 | 0.562 | 0.434 | 0.324 | 0.303 | 0.719 | 0.87 | 0.674 | 0.494 | 0.461 | 0.375 | 0.528 | 0.445 | 0.361 | 0.282
10 | NCI-H650 | 0.435 | 0.42 | 0.375 | 0.428 | 0.405 | 0.989 | 0.886 | 0.867 | 0.734 | 0.711 | 0.553 | 0.505 | 0.422 | 0.355 | 0.432 | 0.98 | 0.876 | 1.04 | 0.881 | 0.917
11 | NCI-H2170 | 0.399 | 0.356 | 0.434 | 0.401 | 0.385 | 0.234 | 0.302 | 0.352 | 0.316 | 0.38 | 0.737 | 0.939 | 0.872 | 0.702 | 0.881 | 0.98 | 0.953 | 0.887 | 0.756 | 0.959
12 | NCI-H2023 | 0.491 | 0.369 | 0.386 | 0.438 | 0.322 | 0.169 | 0.248 | 0.192 | 0.104 | 0.0731 | 0.463 | 0.657 | 0.272 | 0.0749 | 0.109 | 0.456 | 0.513 | 0.437 | 0.151 | 0.11
13 | 201T | 0.461 | 0.425 | 0.449 | 0.511 | 0.444 | 0.666 | 0.648 | 0.658 | 0.719 | 0.68 | 0.892 | 0.996 | 0.96 | 1.06 | 0.942 | 0.699 | 0.727 | 0.709 | 0.71 | 0.736
14 | NCI-H2405 | 0.429 | 0.259 | 0.383 | 0.38 | 0.41 | – | 0.432 | 0.507 | 0.356 | 0.276 | 1.2 | 1.17 | 0.971 | 0.804 | 0.323 | 0.595 | 0.548 | 0.601 | 0.446 | 0.584
15 | LU99A | 0.938 | 0.759 | 0.735 | 0.755 | 0.708 | 0.349 | 0.323 | 0.318 | 0.272 | 0.314 | 0.518 | 0.474 | 0.442 | 0.409 | 0.519 | 0.521 | 0.614 | 0.628 | 0.592 | 0.635
16 | LC-2-ad | 0.613 | 0.539 | 0.592 | 0.6 | 0.563 | 0.496 | 0.406 | 0.417 | 0.359 | 0.227 | 0.699 | 0.714 | 0.624 | 0.637 | 0.664 | 0.949 | 0.888 | 0.924 | 0.924 | 0.895

Reference: the supplement of paper PMC10307832
